Assay type in all cases: biochemical
For test [1], the target named is T1, Procollagen C-Proteinase (PCP) (Homo sapiens, UniProt P13497).
T1 construct: made in house; enzyme purified from culture fluid
T1 sequence (P13497 121-730 isoform P13497-2 limits assumed): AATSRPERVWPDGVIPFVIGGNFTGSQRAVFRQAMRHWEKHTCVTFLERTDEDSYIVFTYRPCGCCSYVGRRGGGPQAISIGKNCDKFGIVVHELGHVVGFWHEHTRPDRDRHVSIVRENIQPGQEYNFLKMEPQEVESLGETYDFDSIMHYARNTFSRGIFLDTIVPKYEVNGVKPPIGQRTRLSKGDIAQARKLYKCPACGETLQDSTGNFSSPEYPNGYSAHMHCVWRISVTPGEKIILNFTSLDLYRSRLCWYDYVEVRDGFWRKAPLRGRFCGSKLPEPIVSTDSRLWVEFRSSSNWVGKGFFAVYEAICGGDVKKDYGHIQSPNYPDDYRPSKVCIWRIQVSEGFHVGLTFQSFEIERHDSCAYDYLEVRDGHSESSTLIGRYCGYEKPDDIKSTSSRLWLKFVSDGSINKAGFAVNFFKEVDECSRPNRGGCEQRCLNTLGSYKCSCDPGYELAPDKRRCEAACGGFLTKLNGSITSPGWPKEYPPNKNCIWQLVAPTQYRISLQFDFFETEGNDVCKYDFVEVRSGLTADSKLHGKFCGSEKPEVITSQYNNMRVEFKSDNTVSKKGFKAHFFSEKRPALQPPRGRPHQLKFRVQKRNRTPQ
Put plainly: Inhibition of Procollagen C-Proteinase activity, Assay A (continuous fluorescence assay, synthetic peptide substrate). Particulars: Assay A from Ex. 21; 20 µM substrate, pH 7.5, 30°C. Here is the method: Human Procollagen C-Proteinase (PCP, also known as Bone Morphogenetic Protein-1 or BMP-1) was cloned from a human fibroblast cDNA library (Stratagene, San Diego, CA). Cloning was performed by PCR based on the reported nucleotide sequence (Wozney, J.M., Rosen,V., Celeste, A.J., Mitsock, L.M., Whitters, M.J., Kriz, R.W., Hewick, R.M., and Wang, E.A. (1989) direct GenBank submission accession M22488, locus HUMBMP1) using Taq polymerase, the 5' primer […] […] […] (SEQ ID NO:1) (Oligo Therapeutics, Inc., Wilsonville, OR), and the 3' reverse strand primer […] TTGAGCTGGTG (SEQ ID NO:2) (Gibco) to yield the entire full-length nucleotide encoding the signal sequence, propeptide, catalytic domain, and all C-terminal domains to the natural translation termination site. The PCR product was purified by gel electrophoresis using the Wizard DNA Purification Kit (Promega, Madison, WI) and ligated directly into the mammalian expression vector pCR3.1 (Invitrogen, Carlsbad, CA) by the TA cloning method. Ligated product was used to transform E coli strain TOP10F' (Invitrogen, Carlsbad, CA) by a standard heat-shock method, and transformants were selected by restriction analysis of purified plasmid using the enzymes HindIII and BamHI. Transformants testing positive for the PCP insert were submitted for sequencing using the Perkin-Elmer / ABI system. Two clones were selected that, when combined, encoded the entire amino acid sequence identical to the one predicted by Wozney et al. The two clones were recombined by restriction using the enzymes BbrI, which cleaved at a naturally occurring internal site, and EcoRV, which cleaved at the junction of the insert and vector. The excised fragments were religated into EcoRV-treated pCR3.1. The resulting construct contained the entire coding sequence identical to that reported by Wozney et al. with the exception of two silent mutations in the signal sequence, G->A at both positions 39 and 45 counting from the translation initiation site (ATG). The completed plasmid construct was amplified in E. coli DH5a and purified using anion exchange chromatography (MaxiPrep columns from Qiagen (Valencia, CA) catalog #12162).
A column packed with Dyematrex Gel Green A (Millipore, Bedford, MA) was equilibrated against 50 mM HEPES, pH7.2, containing 6mM CaCl2 and 0.3M NaCl. After the HT1080 cell culture fluid was loaded, the column was washed with 10 column volumes of the equilibration buffer containing 1.0 M NaCl. PCP was eluted with 50 mM HEPES pH 7.2 containing 3 M NaCl, 2 M urea and 6 mM CaCl2. Eluate fractions were pooled and concentrated to 150-200 ml and dialyzed against 4.0 liters of 50 mM HEPES, 6 mM CaCl2, pH 7.2 overnight. The material was then centrifuged at 5,000 g for 15 minutes to remove precipitates. The PCP containing sample were stored at -20 °C until ready for further processing. The PCP containing sample was thawed and diluted with 50 mM HEPES pH 7.2 containing 6 mM CaCl2, if necessary to bring the NaCl concentration to 0.1-0.15 M. The pH was adjusted to 6.7 with 2 N HCl. The protein solution was filtered through a 0.45 µm filter to remove any precipitate. This preparation was then loaded onto a column packed with Q-Sepharose High Performance (Pharmacia, Piscataway, NJ) which had been equilibrated with 50mM HEPES pH 6.7 containing 6 mM CaCl2 and 0.15 M NaCl. The PCP was not retained in the column and was therefore in the flow through fractions. The PCP was concentrated to 1 mg/ml and used for screening.
Culture fluid from the drosophila cells was concentrated 8 fold and the pH adjusted to 7.1-7.2 if necessary. The culture fluid was centrifuged at 3000 g for 10 minutes and filtered through 0.45 µm filters. The culture fluid was then loaded onto columns packed with carboxy-sulfone packing material (J.T. Baker/Mallinckrodt, Phillipsburg, NJ) which had been equilibrated with 0.1 M NaCl, 50 mM HEPES, 6 mM CaCl2, pH 7.2. […]

For a further test, the target named is T2, collagenase-1 (Homo sapiens, UniProt P03956).
T2 construct: the collagenase-1 catalytic domain was released by treatment with 1mM of aminophenylmercuric acetate (APMA); ubiquitin (cleaved yes); made in house; host or cells: E. coli
T2 sequence (P03956 100-269 limits assumed): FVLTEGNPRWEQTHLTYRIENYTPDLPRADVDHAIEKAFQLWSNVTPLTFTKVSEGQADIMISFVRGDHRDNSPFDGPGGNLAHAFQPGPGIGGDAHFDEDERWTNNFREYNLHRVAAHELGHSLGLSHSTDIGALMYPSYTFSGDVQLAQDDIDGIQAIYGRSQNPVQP
Put plainly: Measurement of collagenase activity (hydrolysis of fluorogenic peptide MCA-Pro-Leu-Gly-Leu-DPA-Ala-Arg-NH2). Particulars: based on inhibitory data from Assay A of Ex. 21 and the Assay of Ex. 22. Here is the method: (§1) The catalytic domain of human collagenase-1 was expressed as a fusion protein with ubiquitin in E. Coli as described in Gehring, E.R. et al., J. Biol. Chem., 270, 22507, (1995). After purification of the fusion protein, the collagenase-1 catalytic domain was released by treatment with 1mM of aminophenylmercuric acetate (APMA) for 1 hour at 37 °C and then purified by zinc chelate chromatography. Human collagenase-2 and gelatinase B were isolated in active form from buffy coats as described in Mookhtiar, K.A. et al., Biochemistry, 29, 10620, (1990). The propeptide and catalytic domain portion of human collagenase-3 was expressed in E. Coli as an N-terminal fusion protein with ubiquitin. After purification, the catalytic domain was released by treatment with 1 mM APMA for 1 hour at 37 ° C, and then purified by zinc chelate chromatography. Rat collagenase-3 was purified in active form from the culture media of uterine smooth muscle cells as described in Roswit, W.T. et al., Arch. Biochem. Biophys., 225, 285-295 (1983).
(§2) The collagenase-1, collagenase-2 and collagenase-3 inhibitory activity of compounds of this invention in vitro was determined based on the hydrolysis of MCA-Pro-Leu-Gly-Leu-DPA-Ala-Arg-NH2 (SEQ ID NO:8) (Bachem, Inc.) at 37°C as described in Knight, C.G., et al., FEBS Lett., 296(3): 263-266 (1992). The collagenase enzyme was diluted with assay buffer (50 mM Tricine pH 7.5, 200 mM NaCl, 10 mM CaCl2, and 0.005% Brij-35) containing […] of above substrate dissolved in DMSO. Compounds of the invention dissolved in DMSO or only DMSO (control samples) were added such that the final DMSO concentration in all assays was 2.5%. The fluorescence changes were monitored with a Perkin-Elmer LS-50B flourimeter using an excitation wavelength of 328 nm and an emission wavelength of 393 nm.

A further test deals with T3, collagenase-2 (Homo sapiens, UniProt P22894).
T3 construct: Human collagenase-2 and gelatinase B were isolated in active form from buffy coats; from tissue; host or cells: human buffy coats (blood leukocytes)
T3 sequence (P22894 101-467): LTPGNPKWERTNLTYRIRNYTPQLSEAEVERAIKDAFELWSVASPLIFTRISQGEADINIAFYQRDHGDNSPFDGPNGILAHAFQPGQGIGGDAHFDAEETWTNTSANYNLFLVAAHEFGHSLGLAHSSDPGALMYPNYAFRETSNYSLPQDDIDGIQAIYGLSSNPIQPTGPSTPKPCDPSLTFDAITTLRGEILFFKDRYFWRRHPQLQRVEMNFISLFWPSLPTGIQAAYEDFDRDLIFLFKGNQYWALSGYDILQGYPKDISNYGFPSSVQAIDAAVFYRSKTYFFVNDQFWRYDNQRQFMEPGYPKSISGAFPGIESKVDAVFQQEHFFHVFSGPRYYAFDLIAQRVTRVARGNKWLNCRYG
The test is described as above. Particulars: based on inhibitory data from Assay A of Ex. 21 and the Assay of Ex. 22. On the procedure: as §1, §2

Another test concerns the target T4, collagenase-3 (Homo sapiens, UniProt P45452).
T4 construct: After purification, the catalytic domain was released by treatment with 1 mM APMA for 1 hour; ubiquitin (N, cleaved yes); made in house; host or cells: E. coli
The test is described as above. Particulars: based on inhibitory data from Assay A of Ex. 21 and the Assay of Ex. 22. On the procedure: as §1, §2

`COc1cc(C)c(S(=O)(=O)N(Cc2ccc3c(c2)OCO3)[C@H](CO)C(=O)NO)c(C)c1C` [Cmpd 5, N-hydroxy-2(R)-[(3,4-methylenedioxybenzyl)-(4-methoxy-2,3,6-trimethylbenzenesulfonyl)amino)-3-hydroxypropionamide]: in test [1], the IC50 (usually the point on the concentration scale where inhibition reaches its midpoint) turned out to be 73 nM. In addition, on collagenase-1, the “Selectivity for PCP/Col-1” value turned out to be 520.5. For the same molecule, the “Selectivity for PCP/Col-2” value on collagenase-2 is 123.3.
In turn, `COc1cc(C)c(S(=O)(=O)N(Cc2ccc3c(c2)OCO3)[C@@H](C(=O)NO)C(C)C)c(C)c1C` [Cmpd 12, N-hydroxy-2(R)-[(3,4-methylenedioxybenzyl)-(4-methoxy-2,3,6-trimethylbenzenesulfonyl)amino]-3-methylbutyramide] yielded an IC50 in test [1] of 69 nM. The “Selectivity for PCP/Col-1” value on collagenase-1 is listed as 89.9. Moreover, the “Selectivity for PCP/Col-2” value at collagenase-2 is on record as 23.2. The “Selectivity for PCP/Col-3” value at collagenase-3 turned out to be 14.5.
The molecule `COc1cc(C)c(S(=O)(=O)N(Cc2ccc3[nH]ccc3c2)[C@H](COC(C)(C)C)C(=O)NO)c(C)c1C` [Cmpd 15, N-Hydroxy-2(R)-[(4-methoxy-2,5,6-trimethylbenzenesulfonyl)-(1H-indol-5-ylmethyl)amino]-3-tert-butoxypropionamide] gave an IC50 in test [1] of 66 nM. Besides, the “Selectivity for PCP/Col-1” value at collagenase-1 was determined as 515.1. Besides, the “Selectivity for PCP/Col-2” value on collagenase-2 came out at 454.5.
For `COc1cc(C)c(S(=O)(=O)N(Cc2ccc3c(c2)OCO3)[C@@H](C(=O)NO)C(C)C)c(C)c1` [Cmpd 40, N-hydroxy-2(R)-2-[(3,4-methylenedioxybenzyl)-(4-methoxy-2,6-dimethylbenzene-sulfanyl)amino]-3-methylbutyramide], in that order: 68 nM, 367.6 and 55.9.
The molecule `COc1cc(C)c(S(=O)(=O)N(Cc2ccc3[nH]cnc3c2)[C@@H](C(=O)NO)C(C)C)c(C)c1C` [Cmpd 82] gave an IC50 in test [1] of 40 nM. Further, the “Selectivity for PCP/Col-1” value on collagenase-1 came out at 1775.0. The “Selectivity for PCP/Col-2” value on collagenase-2 was 250.0. Moreover, at collagenase-3, the “Selectivity for PCP/Col-3” value worked out at 1950.0.
Regarding `COc1cc(C)c(S(=O)(=O)N(Cc2ccc3[nH]cc(C(C)=O)c3c2)[C@@H](C(=O)NO)C(C)C)c(C)c1C` [Cmpd 126, N-hydroxy-2(R)-[(1H-3-acetyl-indol-5-ylmethyl)-(4-methoxy-2,3,6-trimethylbenzenesulfonyl)amino]-3-methylbutyramide], the IC50 in test [1] is 26 nM.
Still for that read-out and setting: in the case of `COc1cc(C)c(S(=O)(=O)N(Cc2ccc3c(c2)OCO3)[C@H](CNS(C)(=O)=O)C(=O)NO)c(C)c1` [Cmpd 128, N-hydroxy-2(R)-[(3,4-methylendioxybenzyl)-(2,6-dimethyl-4-methoxybenzenesulfonyl)amino]-3-(methanesulfonyl)amino-propionamide] it was 30 nM.
`COc1cc(C)c(S(=O)(=O)N(Cc2ccc3[nH]ccc3c2)[C@@H](C(=O)NO)C(C)C)cc1C` [Cmpd 145, N-hydroxy-2(R)-2-[(1H-indol-5-ylmethyl)-(4-methoxy-2,5-dimethylbenzenesulfonyl)-amino]-3-methylbutyramide]: the IC50 in test [1] amounted to 110 nM. Besides, the “Selectivity for PCP/Col-1” value on collagenase-1 was 400.0. Besides, the “Selectivity for PCP/Col-2” value at collagenase-2 was 136.4.

Values taken from patent publication EP1149072B1, “SULFONAMIDE HYDROXAMATES” (F. HOFFMANN-LA ROCHE AG, priority 1998, dated 2000).
